Measured values from patent US11739074B2, “Ras inhibitors” (Revolution Medicines, Inc., priority 2019, dated 2023).
Where two headings read alike, the source gives them in different places.

What was measured:
AsPC-1 (K-Ras G12D) [1] = assay: CellTiter-Glo cell viability assay, AsPC-1; type: cell-based; details: Homo sapiens, ASPC1, 120 h
In short: (§1)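 Viability is scored by CellTiter-Glo luminescence on day 5 of compound treatment, relative to vehicle (DMSO) wells set as 100%, with a four-parameter logistic fit.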

AsPC-1 (K-Ras G12D) [2] = assay: Potency assay: pERK in AsPC-1 cells; type: cell-based; details: Homo sapiens
KRAS WT = KRAS WT (Homo sapiens, UniProt P01116+P62937); assay: Ras-Raf disruption/FRET/MOA assay, KRAS WT; type: biochemical
In short: (§2)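 Compounds promote a Cyclophilin A (25 μM) ternary complex with His6-KRAS-GMPPNP, which blocks binding of GST-BRAF^RBD (50 nM). Titration runs to a 30 μM top concentration, and loss of RAF binding is detected by TR-FRET.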

KRAS G12V = KRAS G12V (Homo sapiens, UniProt P01116+P62937, G12V); assay: Ras-Raf disruption/FRET/MOA assay, KRAS G12V; type: biochemical
In short: as §2

KRAS G12S = KRAS G12S (Homo sapiens, UniProt P01116+P62937, G12S); assay: Ras-Raf disruption/FRET/MOA assay, KRAS G12S; type: biochemical
In short: as §2

KRAS G12D = KRAS G12D (Homo sapiens, UniProt P01116+P62937, G12D); assay: Ras-Raf disruption/FRET/MOA assay, KRAS G12D; type: biochemical
In short: as §2

KRAS G13D = KRAS G13D (Homo sapiens, UniProt P01116+P62937, G13D); assay: Ras-Raf disruption/FRET/MOA assay, KRAS G13D; type: biochemical
In short: as §2

KRAS G13C = KRAS G13C (Homo sapiens, UniProt P01116+P62937, G13C); assay: Ras-Raf disruption/FRET/MOA assay, KRAS G13C; type: biochemical
In short: as §2

KRAS G12C = KRAS G12C (Homo sapiens, UniProt P01116+P62937, G12C); assay: Ras-Raf disruption/FRET/MOA assay, KRAS G12C; type: biochemical
In short: as §2

NCI-H358 (K-Ras G12C) = assay: CellTiter-Glo cell viability assay, H358; type: cell-based; details: Homo sapiens, NCI-H358, 120 h
In short: as §1

NRAS G12C = target: T1, NRAS G12C (Homo sapiens, UniProt P01111+P62937, G12C); assay: Ras-Raf disruption/FRET/MOA assay, NRAS G12C; type: biochemical
T1 construct: His6
In short: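 Disruption of Ras:RAF binding was read as a drop in TR-FRET ratio versus DMSO controls. The buffer was 25 mM HEPES pH 7.3, 0.002% Tween20, 0.1% BSA, 100 mM NaCl and 5 mM MgCl2. Compounds were tested as a 10-point 3-fold dilution series from 30 μM. Detection used 10 nM anti-His Eu-W1024 and 50 nM anti-GST allophycocyanin.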

[3] = read-out: AsPC-1 Cell Viability IC50, AsPC-1, K-Ras G12D, 5-day treatment
[4] = ASPC1, read-out: pERK EC50 (AsPC-1 KRAS G12D)
[5] = read-out: H358 Cell Viability IC50, NCI-H358, K-Ras G12C, 5-day treatment
[6] = NRAS G12C FRET data IC50, NRAS G12C
[7] = read-out: AsPC-1 Cell Viability IC50
[8] = disruption of BRAF RBD binding, with Cyclophilin A, read-out: KRAS WT FRET IC50
[9] = disruption of BRAF RBD binding, with Cyclophilin A, read-out: KRAS G12V FRET IC50
[10] = disruption of BRAF RBD binding, with Cyclophilin A, read-out: KRAS G12S FRET IC50
[11] = disruption of BRAF RBD binding, with Cyclophilin A, read-out: KRAS G12D FRET IC50
[12] = disruption of BRAF RBD binding, with Cyclophilin A, read-out: KRAS G13D FRET IC50
[13] = disruption of BRAF RBD binding, with Cyclophilin A, read-out: KRAS G13C FRET IC50
[14] = disruption of BRAF RBD binding, with Cyclophilin A, read-out: KRAS G12C FRET IC50
[15] = NRAS G12C, read-out: NRAS G12C FRET data IC50
[16] = AsPC-1, K-Ras G12D, 5-day treatment, read-out: AsPC-1 Cell Viability IC50
[17] = ASPC1, AsPC-1 cells, K-Ras G12D, read-out: pERK EC50 (AsPC-1 KRAS G12D)

T1 sequence (P01111 whole entry G12C): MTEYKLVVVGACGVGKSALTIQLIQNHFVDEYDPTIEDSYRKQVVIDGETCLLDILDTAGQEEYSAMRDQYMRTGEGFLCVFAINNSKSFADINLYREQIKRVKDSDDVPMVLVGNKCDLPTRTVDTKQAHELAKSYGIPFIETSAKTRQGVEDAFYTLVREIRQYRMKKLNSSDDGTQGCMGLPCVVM
T1 sequence (P62937 whole entry): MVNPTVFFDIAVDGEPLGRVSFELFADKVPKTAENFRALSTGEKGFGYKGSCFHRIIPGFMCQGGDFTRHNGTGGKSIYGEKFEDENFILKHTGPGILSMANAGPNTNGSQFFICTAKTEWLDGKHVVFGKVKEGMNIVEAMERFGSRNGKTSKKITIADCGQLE
Chain of KRAS G12V (P01116 1-169 isoform P01116-2 G12V limits assumed): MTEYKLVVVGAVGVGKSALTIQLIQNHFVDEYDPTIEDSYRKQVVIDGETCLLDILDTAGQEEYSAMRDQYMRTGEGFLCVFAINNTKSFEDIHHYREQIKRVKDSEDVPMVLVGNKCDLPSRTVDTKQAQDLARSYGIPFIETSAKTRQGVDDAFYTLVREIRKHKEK
Chain of KRAS G12V (P62937 whole entry): as the sequence (P62937 whole entry) above
Chain of KRAS G12C (P01116 1-169 isoform P01116-2 G12C limits assumed): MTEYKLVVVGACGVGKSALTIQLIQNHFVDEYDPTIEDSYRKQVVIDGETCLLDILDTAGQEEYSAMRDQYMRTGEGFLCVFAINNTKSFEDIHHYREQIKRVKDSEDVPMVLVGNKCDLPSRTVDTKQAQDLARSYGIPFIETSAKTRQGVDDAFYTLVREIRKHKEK
Chain of KRAS G12C (P62937 whole entry): as the sequence (P62937 whole entry) above
Chain of KRAS G12S (P01116 1-169 isoform P01116-2 G12S limits assumed): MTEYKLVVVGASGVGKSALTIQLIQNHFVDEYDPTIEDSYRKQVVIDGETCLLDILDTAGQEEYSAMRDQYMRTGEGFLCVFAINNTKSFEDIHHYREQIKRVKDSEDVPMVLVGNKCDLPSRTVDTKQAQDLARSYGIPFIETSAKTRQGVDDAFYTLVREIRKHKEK
Chain of KRAS G12S (P62937 whole entry): as the sequence (P62937 whole entry) above
Chain of KRAS G13D (P01116 1-169 isoform P01116-2 G13D limits assumed): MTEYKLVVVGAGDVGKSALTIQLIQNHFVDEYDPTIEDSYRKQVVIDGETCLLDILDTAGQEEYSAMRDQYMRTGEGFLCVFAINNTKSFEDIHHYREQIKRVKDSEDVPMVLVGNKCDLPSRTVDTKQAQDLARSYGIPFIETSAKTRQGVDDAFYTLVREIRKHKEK
Chain of KRAS G13D (P62937 whole entry): as the sequence (P62937 whole entry) above
Chain of KRAS G13C (P01116 1-169 isoform P01116-2 G13C limits assumed): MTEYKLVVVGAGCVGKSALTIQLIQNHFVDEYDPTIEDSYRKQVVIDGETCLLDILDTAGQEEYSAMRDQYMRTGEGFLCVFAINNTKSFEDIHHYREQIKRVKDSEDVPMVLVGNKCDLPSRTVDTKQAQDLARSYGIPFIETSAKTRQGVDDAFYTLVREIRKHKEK
Chain of KRAS G13C (P62937 whole entry): as the sequence (P62937 whole entry) above
Chain of KRAS WT (P01116 1-169 isoform P01116-2 limits assumed): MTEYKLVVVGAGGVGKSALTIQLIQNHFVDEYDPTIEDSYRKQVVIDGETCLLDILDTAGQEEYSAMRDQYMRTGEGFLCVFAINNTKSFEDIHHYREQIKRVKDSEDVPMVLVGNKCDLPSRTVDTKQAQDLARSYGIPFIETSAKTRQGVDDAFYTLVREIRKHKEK
Chain of KRAS WT (P62937 whole entry): as the sequence (P62937 whole entry) above
Chain of KRAS G12D (P01116 1-169 isoform P01116-2 G12D limits assumed): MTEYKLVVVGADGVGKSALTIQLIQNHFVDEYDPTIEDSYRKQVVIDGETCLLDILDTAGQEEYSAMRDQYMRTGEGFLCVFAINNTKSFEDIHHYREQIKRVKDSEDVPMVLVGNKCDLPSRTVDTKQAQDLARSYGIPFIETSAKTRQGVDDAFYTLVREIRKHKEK
Chain of KRAS G12D (P62937 whole entry): as the sequence (P62937 whole entry) above

Structure (SMILES) | IC50 (AsPC-1 (K-Ras G12D) [1]; [3]) | EC50 (AsPC-1 (K-Ras G12D) [2]; [4]) | IC50 (KRAS WT) | IC50 (KRAS G12V) | IC50 (KRAS G12S) | IC50 (KRAS G12D) | IC50 (KRAS G13D) | IC50 (KRAS G13C) | IC50 (KRAS G12C) | IC50 (NCI-H358 (K-Ras G12C); [5]) | IC50 (NRAS G12C; [6]) | IC50 (AsPC-1 (K-Ras G12D) [1]; [7]) | IC50 (KRAS WT; [8]) | IC50 (KRAS G12V; [9]) | IC50 (KRAS G12S; [10]) | IC50 (KRAS G12D; [11]) | IC50 (KRAS G13D; [12]) | IC50 (KRAS G13C; [13]) | IC50 (KRAS G12C; [14]) | IC50 (NRAS G12C; [15]) | further results
CCn1c(-c2cnccc2COC)c2c3cc(ccc31)-c1cc(O)cc(c1)C[C@H](NC(=O)[C@H](C(C)C)N(C)C(=O)CN(C)C(=O)[C@@H]1CN1)C(=O)N1CCC[C@H](N1)C(=O)OCC(C)(C)C2 [Compound 8] | 1 to 10 µM | < 5 µM | 0.1 to 1 µM | 0.1 to 1 µM | 0.01 to 0.1 µM | 0.1 to 1 µM | 0.1 to 1 µM | 0.01 to 0.1 µM | 0.01 to 0.1 µM | 0.01 to 0.1 µM | 0.01 to 0.1 µM |  |  |  |  |  |  |  |  |  | 
CCn1c(-c2cnccc2COC)c2c3cc(ccc31)-c1cc(O)cc(c1)C[C@H](NC(=O)[C@H](C(C)C)N(C)C(=O)CN(C)C(=O)[C@H]1CN1Cc1ccccc1)C(=O)N1CCC[C@H](N1)C(=O)OCC(C)(C)C2 (stereo partly shown) [Compound 9] | 1 to 10 µM | < 5 µM | 0.1 to 1 µM | 0.1 to 1 µM | 0.1 to 1 µM | 1 to 10 µM | 0.1 to 1 µM | 0.1 to 1 µM | 0.01 to 0.1 µM | 0.01 to 0.1 µM | 0.01 to 0.1 µM |  |  |  |  |  |  |  |  |  | 
CCn1c(-c2cnccc2COC)c2c3cc(ccc31)-c1cc(O)cc(c1)C[C@H](NC(=O)[C@H](C(C)C)N(C)C(=O)CN(C)C(=O)[C@@H]1CN1Cc1ccccc1)C(=O)N1CCC[C@H](N1)C(=O)OCC(C)(C)C2 (stereo partly shown) [Compound 10] | 1 to 10 µM | < 5 µM | 0.1 to 1 µM | 0.1 to 1 µM | 0.01 to 0.1 µM | 1 to 10 µM | 1 to 10 µM | 0.1 to 1 µM | 0.01 to 0.1 µM | 0.01 to 0.1 µM | 0.01 to 0.1 µM |  |  |  |  |  |  |  |  |  | 
CCn1c(-c2cnccc2COC)c2c3cc(ccc31)-c1cc(O)cc(c1)C[C@H](NC(=O)[C@H](C(C)C)N(C)C(=O)CN(C)C(=O)C1CN1S(C)(=O)=O)C(=O)N1CCC[C@H](N1)C(=O)OCC(C)(C)C2 (stereo partly shown) [Compound 13] |  | < 5 µM |  |  |  |  |  |  |  |  |  | 1 to 10 µM | 0.01 to 0.1 µM | 0.01 to 0.1 µM | 0.01 to 0.1 µM | 0.1 to 1 µM | 0.1 to 1 µM | 0.01 to 0.1 µM | 0.01 to 0.1 µM | 0.01 to 0.1 µM | IC50 (NCI-H358 (K-Ras G12C); read-out: H358 Cell Viability IC50): 0.01 to 0.1 µM
CCn1c(-c2cnccc2COC)c2c3cc(ccc31)-c1cc(O)cc(c1)C[C@H](NC(=O)[C@@H](CNC1=NCCO1)C(C)C)C(=O)N1CCC[C@H](N1)C(=O)OCC(C)(C)C2 [Compound 29] |  |  |  |  |  |  |  |  |  |  |  |  | 1 to 10 µM | 1 to 10 µM | 1 to 10 µM | 1 to 10 µM | 1 to 10 µM | 1 to 10 µM | 1 to 10 µM | 1 to 10 µM | IC50 (AsPC-1 (K-Ras G12D) [1]; [16]): 1 to 10 µM; IC50 (NCI-H358 (K-Ras G12C); NCI-H358, K-Ras G12C, 5-day treatment, read-out: H358 Cell Viability IC50): 1 to 10 µM
CCn1c(-c2cccnc2[C@H](C)OC)c2c3cc(ccc31)-c1cc(O)cc(c1)C[C@H](NC(=O)[C@H](C(C)C)N1CC[C@@]3(CCCN(C(=O)[C@H]4CN4)C3)C1=O)C(=O)N1CCC[C@H](N1)C(=O)OCC(C)(C)C2 [Compound 199] |  |  |  |  |  |  |  |  |  |  |  |  | 0.1 to 1 µM | 0.1 to 1 µM | 0.1 to 1 µM | 0.1 to 1 µM | 0.1 to 1 µM | 0.1 to 1 µM | 0.1 to 1 µM | 0.1 to 1 µM | IC50 (AsPC-1 (K-Ras G12D) [1]; [16]): 1 to 10 µM; EC50 (AsPC-1 (K-Ras G12D) [2]; [17]): < 5 µM
CCn1c(-c2cccnc2[C@H](C)OC)c2c3cc(ccc31)-c1cc(O)cc(c1)C[C@H](NC(=O)[C@H](C(C)C)N1CC[C@]3(CCCN(C(=O)[C@H]4CN4)C3)C1=O)C(=O)N1CCC[C@H](N1)C(=O)OCC(C)(C)C2 [Compound 200] |  |  |  |  |  |  |  |  |  |  |  |  | 0.1 to 1 µM | 0.01 to 0.1 µM | 0.01 to 0.1 µM | 0.1 to 1 µM | 0.1 to 1 µM | 0.01 to 0.1 µM | < 0.01 µM | < 0.01 µM | IC50 (AsPC-1 (K-Ras G12D) [1]; [16]): 1 to 10 µM; EC50 (AsPC-1 (K-Ras G12D) [2]; [17]): < 5 µM
CCn1c(-c2cnccc2COC)c2c3cc(ccc31)-c1cc(O)cc(c1)C[C@H](NC(=O)[C@H](C(C)C)N(C)C(=O)CN(C)C(=O)[C@H]1CN1C(C)=O)C(=O)N1CCC[C@H](N1)C(=O)OCC(C)(C)C2 [Example 34, (2R)-1-acetyl-N-(2-(((2S)-1-(((6^3S,4S)-1^1-ethyl-2^5-hydroxy-1^2-(4-(methoxymethyl)pyridin-3-yl)-10,10-dimethyl-5,7-dioxo-6^1,6^2,6^3,6^4,6^5,6^6-hexahydro-1^1H-8-oxa-1(5,3)-indola-6(1,3)-pyridazina-2(1,3)-benzenacycloundecaphane-4-yl)amino)-3-methyl-1-oxobutan-2-yl)(methyl)amino)-2-oxoethyl)-N-methylaziridine-2-carboxamide] |  | < 5 µM |  |  |  |  |  |  |  |  |  | 1 to 10 µM | 0.1 to 1 µM | 0.1 to 1 µM | 0.01 to 0.1 µM | 0.1 to 1 µM | 0.1 to 1 µM | 0.01 to 0.1 µM | 0.01 to 0.1 µM | 0.01 to 0.1 µM | 
CCn1c(-c2cnccc2COC)c2c3cc(ccc31)-c1cc(O)cc(c1)C[C@H](NC(=O)[C@H](C(C)C)N(C)C(=O)CN(C)C(=O)[C@H]1CN1C(=O)OC)C(=O)N1CCC[C@H](N1)C(=O)OCC(C)(C)C2 [Example 38, methyl (2R)-2-((2-(((2S)-1-(((6^3S,4S)-1^1-ethyl-2^5-hydroxy-1^2-(4-(methoxymethyl)pyridin-3-yl)-10,10-dimethyl-5,7-dioxo-6^1,6^2,6^3,6^4,6^5,6^6-hexahydro-1^1H-8-oxa-1(5,3)-indola-6(1,3)-pyridazina-2(1,3)-benzenacycloundecaphane-4-yl)amino)-3-methyl-1-oxobutan-2-yl)(methyl)amino)-2-oxoethyl)(methyl)carbamoyl)aziridine-1-carboxylate] |  | < 5 µM |  |  |  |  |  |  |  |  |  | 1 to 10 µM | 0.1 to 1 µM | 0.1 to 1 µM | 0.01 to 0.1 µM | 0.1 to 1 µM | 0.1 to 1 µM | 0.01 to 0.1 µM | 0.01 to 0.1 µM | 0.01 to 0.1 µM | 
